Measurements taken from US12617762B2, “Carboxy derivatives with antiinflamatory properties” (Sitryx Therapeutics Limited, priority 2019, dated 2026).
Like-named read-outs stand apart in the source and are kept apart here.

Legend:
[1] = tested on: IL-6 cytokine output from THP-1s; test: THP-1 AlphaLISA IL-6 cytokine inhibition assay; assay type: cell-based; settings: Homo sapiens, LPS then nigericin
Method: The cytokine inhibition profiles of compounds of formula (I) were determined in a differentiated THP-1 cell assay. All assays were performed in RPMI-1640 growth medium (Gibco), supplemented with 10% fetal bovine serum (FBS; Gibco), 1% penicillin-streptomycin and 1% sodium pyruvate unless specified otherwise. The IL-1β cytokine inhibition assay was run in a background of differentiated THP-1 cells as described below. All reagents described were from Sigma-Aldrich unless specified otherwise. Compounds were prepared as 10 mM DMSO stocks.
THP-1 cells were expanded as a suspension up to 80% confluence in appropriate growth medium. Cells were harvested, suspended, and treated with an appropriate concentration of phorbol 12-myristate 13-acetate (PMA) over a 72 hr period (37° C./5% CO2).
Following 72 hrs of THP-1 cell incubation, cellular medium was removed and replaced with fresh growth media containing 1% of FBS. Working concentrations of compounds were prepared separately in 10% FBS treated growth medium and pre-incubated with the cells for 30 minutes (37° C./5% CO2). Following the 30 minute compound pre-incubation, THP-1s were treated with an appropriate concentration of LPS and the cells were subsequently incubated for a 24 hr period (37° C./5% CO2). An appropriate final concentration of Nigericin was then dispensed into the THP-1 plates and incubated for 1 hour (37° C./5% CO2) before THP-1 supernatants were harvested and collected in separate polypropylene 96-well holding plates.
Reagents from an IL-1β and IL-6 commercial kit (Perkin Elmer) were prepared and run according to the manufacturer's instructions. Subsequently, fluorescence signal detection in a microplate reader was measured (EnVision® Multilabel Reader, Perkin Elmer).
Percentage inhibition was calculated per cytokine by normalising the sample data to the high and low controls used within each plate (+/− LPS respectively).

[2] = Hepatocyte stability assay, human; assay type: in vitro ADME; settings: human, hepatocytes; for hepatocyte CLint at 10 μM: Hepatocyte stability Clint; for half-life at 10 μM: Hepatocyte stability T½
Method in brief: (§1)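 Thawed cryopreserved hepatocytes (viability >70%) at 0.5×10^6 cells/mL in Leibovitz buffer were preincubated at 37° C, then given 10 μM compound (0.1% DMSO) in duplicate. Samples at 0–60 min were quenched in acetonitrile and analysed by LC-MS/MS. Intrinsic clearance and half-life were derived from ln % remaining versus time.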

[3] = Hepatocyte stability assay, mouse; assay type: in vitro ADME; settings: mouse, hepatocytes; for hepatocyte CLint at 10 μM: Hepatocyte stability Clint; for half-life at 10 μM: Hepatocyte stability T½
Method in brief: as §1

[4] = tested on: IL-1β cytokine output from THP-1s; test: THP-1 AlphaLISA IL-1β cytokine inhibition assay; assay type: cell-based; settings: for IC50: Homo sapiens
Method in brief: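 IL-1β release by AlphaLISA, expressed as % inhibition against +/− LPS controls on each plate. Differentiation: PMA, 72 h. Sequence: 30 min compound pre-treatment, LPS 24 h, Nigericin 1 h before supernatant harvest, all at 37° C./5% CO2.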

[5] = tested on: NRF2 (nuclear factor erythroid 2-related factor 2); test: NRF2 +/-GSH activation assay (DiscoverX PathHunter NRF2 translocation kit, U2OS cells); assay type: cell-based; settings: for NRF2 activation +GSH Emax / NRF2 activation −GSH Emax: normalised to DMF high control
Method in brief: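 Activation is expressed as percent of plate DMF (high) versus no-DMF (low) controls, from luminescence after 6 h compound exposure at 37 °C of U2OS PathHunter cells. The +GSH condition used compound pre-incubated 30 min in 6 mM working GSH; −GSH cells received compound directly.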

[6] = THP-1, differentiated THP-1 cells
[7] = THP-1, differentiated THP-1 cells, LPS then nigericin
[8] = +GSH, 30 minute compound-GSH pre-incubation, read-out: NRF2 activation +GSH EC50
[9] = −GSH, U2OS PathHunter cells, 6 hours compound treatment, read-out: NRF2 activation −GSH EC50

| IC50 ([1]; differentiated THP-1 cells) [µM] | IC50 ([4]; THP-1, Table 3, head to head comparison of exo vs endo double bond compounds) [µM] | SMILES | IC50 [1, 6] [µM] | hepatocyte CLint at 10 μM [2] [µL/min/1e6 cells] | half-life at 10 μM [2] [min] | hepatocyte CLint at 10 μM [3] [µL/min/1e6 cells] | half-life at 10 μM [3] [min] | IC50 [4, 7] [µM] | EC50 [5, 8] [µM] | NRF2 activation +GSH Emax ([5]; +GSH) [%] | EC50 [5, 9] [µM] | NRF2 activation −GSH Emax ([5]; −GSH) [%] | IL-1β lowering, result in words ([4]; THP-1 IL-1β assay) |
| --- | --- | --- | --- | --- | --- | --- | --- | --- | --- | --- | --- | --- | --- |
|  |  | C=C(Cc1nc(C2(c3ccc(Cl)cc3)CC2)no1)C(=O)O [Example 10, 2-((3-(1-(4-chlorophenyl)cyclopropyl)-1,2,4-oxadiazol-5-yl)methyl)acrylic acid] | 26.2 | 27 | 47 | 125 | 8 | 10 | 45.2 | 53 | 36.8 | 67 |  |
| 5.2 |  | C=C(Cc1cc(CCCCCCCC)on1)C(=O)O [Example 102, 2-((5-octylisoxazol-3-yl)methyl)acrylic acid] |  | > 460 | < 3 | > 460 | < 3 | 7.4 | 9.5 | 230 | 7.2 | 342 |  |
|  |  | C=C(Cc1noc(C(F)(F)CCCCCCC)n1)C(=O)O [Example 83, 2-((5-(1,1-difluorooctyl)-1,2,4-oxadiazol-3-yl)methyl)acrylic acid] | 3.4 | 263 | 5 | > 460 | < 3 | 3.1 | 3.8 | 161 | 3 | 185 |  |
| 9.8 |  | C=C(C(=O)O)C(OC)c1nc(CCCCCCCC)no1 (centres unmarked) [Example 110, 2-(methoxy(3-octyl-1,2,4-oxadiazol-5-yl)methyl)acrylic acid] |  | > 460 | < 3 | > 460 | < 3 | > 31.6 | 48.8 | 132 | 38.9 | 153 |  |
|  |  | C=C(Cc1nc(C(F)(F)c2ccc(Cl)cc2)no1)C(=O)O [Example 74, 2-((3-((4-chlorophenyl)difluoromethyl)-1,2,4-oxadiazol-5-yl)methyl)acrylic acid] | 9 | < 3 | > 430 | 31 | 47 | 6.4 | 44.4 | 65 | 24.4 | 174 |  |
| 2 |  | C=C(Cc1ccc(CCCCCCCC)cn1)C(=O)O [Example 105] |  | > 460 | < 3 | > 460 | < 3 | 4.2 | 5.3 | 166 | 5.3 | 257 |  |
| 23.1 |  | C=C(Cc1noc(C(F)(F)c2ccc(Cl)cc2)n1)C(=O)O [Example 84, 2-((5-((4-chlorophenyl)difluoromethyl)-1,2,4-oxadiazol-3-yl)methyl)acrylic acid] |  | 14 | 115 | 83 | 21 | 39 |  |  |  |  |  |
|  |  | C=C(Cc1nc(CCCCCCCCC(F)(F)F)no1)C(=O)O [Example 60, 2-((3-(9,9,9-trifluorononyl)-1,2,4-oxadiazol-5-yl)methyl)acrylic acid] | 6 | 137 | 11 | 257 | 6 | 11.2 | 9 | 110 | 8.4 | 195 |  |
|  |  | C=C(Cc1nc(C2(c3ccc(F)cc3)CC2)no1)C(=O)O [Example 44, 2-((3-(1-(4-fluorophenyl)cyclopropyl)-1,2,4-oxadiazol-5-yl)methyl)acrylic acid] | 29.9 | 10 | 144 | 37 | 44 | > 100 | > 100 | 23 | 28.7 | 65 | not effective |
|  |  | C=C(Cc1nc(Cc2ccc(OC(F)(F)C(F)F)cc2)no1)C(=O)O [Example 81, 2-((3-(4-(1,1,2,2-tetrafluoroethoxy)benzyl)-1,2,4-oxadiazol-5-yl)methyl)acrylic acid] | 12.8 | < 3 | > 460 | 94 | 18 | 22 |  |  |  |  |  |
|  |  | C=C(Cc1nc(-c2ccc(C3(CCC)CC3)cc2)no1)C(=O)O [Example 72, 2-((3-(4-(1-propylcyclopropyl)phenyl)-1,2,4-oxadiazol-5-yl)methyl)acrylic acid] | 4.4 | 69 | 27 | 28 | 43 | 7 | 19.5 | 151 | 14.6 | 189 |  |
|  |  | C=C(Cc1nc(-c2ccc(Cl)cc2)c(CCCC)o1)C(=O)O [Example 109, 2-((5-butyl-4-(4-chlorophenyl)oxazol-2-yl)methyl)acrylic acid] | 10.6 | 20 | 79 | 61 | 28 | > 31.6 |  |  |  |  |  |
| 31.5 | > 31.6 | CCCCCCCCc1noc(/C=C(\C)C(=O)O)n1 [Example 166, (E)-2-methyl-3-(3-octyl-1,2,4-oxadiazol-5-yl)acrylic acid] |  | 260 | 6 | 204 | 7 | > 31.6 |  |  |  |  |  |
| 3.9 |  | C=C(Cc1nc(C2(c3ccc(C(F)(F)F)c(Cl)c3)CC2)no1)C(=O)O [Example 136, 2-((3-(1-(3-chloro-4-(trifluoromethyl)phenyl)cyclopropyl)-1,2,4-oxadiazol-5-yl)methyl)acrylic acid] |  | 44 | 32 | 79 | 16 | 2.9 |  |  |  |  |  |
| 8.4 |  | C=C(Cc1nc(CCCCCCCC)c(C)o1)C(=O)O [Example 107, 2-((5-methyl-4-octyloxazol-2-yl)methyl)acrylic acid] |  | 161 | 8 | > 460 | < 3 | 9.5 |  |  |  |  |  |
|  |  | C=C(Cc1nc(C(F)(F)c2ccc(C(F)(F)F)cc2)no1)C(=O)O [Example 92, 2-((3-(difluoro(4-(trifluoromethyl)phenyl)methyl)-1,2,4-oxadiazol-5-yl)methyl)acrylic acid] | 19.9 | < 3 | > 460 | 23 | 84 | 6.7 |  |  |  |  |  |
| 17.9 |  | C=C(Cc1nc(C2(c3cc(F)c(Cl)c(F)c3)CC2)no1)C(=O)O [Example 135, 2-((3-(1-(4-chloro-3,5-difluorophenyl)cyclopropyl)-1,2,4-oxadiazol-5-yl)methyl)acrylic acid] |  | 31 | 45 | 159 | 8 | 13.2 |  |  |  |  |  |
|  |  | C=C(Cc1nc(C2(c3cc(Cl)cc(Cl)c3)CC2)no1)C(=O)O [Example 67, 2-((3-(1-(3,5-dichlorophenyl)cyclopropyl)-1,2,4-oxadiazol-5-yl)methyl)acrylic acid] | 4.1 | 70 | 23 | 92 | 13 | 69.4 |  |  |  |  |  |
